Source: PubChem BioAssay (NCI)
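Protocol summary: plate cells (96-well), add compound at 5 concentrations, incubate 48 h, interpolate endpoints linearly. GI50: concentration for 50% inhibition of growth. Definition used: TGI = concentration required for complete inhibition of growth.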

Experiments:
Test in all cases: inhibition of tumour cell growth, NCI panel, 48 h
MOLT-4 leukemia = system: MOLT-4 leukemia
HCT-15 colon = system: HCT-15 colon
SK-MEL-5 melanoma = system: SK-MEL-5 melanoma
SNB-75 CNS = system: SNB-75 CNS
MDA-MB-231 breast = system: MDA-MB-231 breast
HCC-2998 colon = system: HCC-2998 colon
RXF 393 renal = system: RXF 393 renal
CAKI-1 renal = system: CAKI-1 renal
A498 renal = system: A498 renal
TK-10 renal = system: TK-10 renal

Compound | GI50 (MOLT-4 leukemia) | TGI (MOLT-4 leukemia) | GI50 (HCT-15 colon) | TGI (HCT-15 colon) | GI50 (SK-MEL-5 melanoma) | TGI (SK-MEL-5 melanoma) | GI50 (SNB-75 CNS) | TGI (SNB-75 CNS) | GI50 (MDA-MB-231 breast) | TGI (MDA-MB-231 breast) | GI50 (HCC-2998 colon) | TGI (HCC-2998 colon) | GI50 (RXF 393 renal) | TGI (RXF 393 renal) | GI50 (CAKI-1 renal) | TGI (CAKI-1 renal) | GI50 (A498 renal) | TGI (A498 renal) | GI50 (TK-10 renal) | TGI (TK-10 renal)
CCOc1ccc(N(C)c2ccc(/C=C/C3=[N+](C)c4ccccc4C3(C)C)cc2)cc1 | 0.193 µM | 0.709 µM | 0.596 µM | 2.11 µM | 0.192 µM | 0.784 µM | 1.13 µM | 2.76 µM | 0.485 µM | 2.22 µM | 0.391 µM | 1.55 µM | 0.471 µM | 1.95 µM | 0.784 µM | 2.48 µM | 0.189 µM | 10.2 µM | – | –
COC(=O)N[C@H]1CCc2cc(OC)c(OC)c(OC)c2-c2ccc(SC)c(=O)cc21 | < 0.01 µM | > 70.5 µM | < 0.01 µM | > 47.3 µM | < 0.01 µM | 0.0191 µM | < 0.01 µM | > 100 µM | < 0.01 µM | 29 µM | < 0.01 µM | > 100 µM | < 0.01 µM | > 100 µM | < 0.0166 µM | > 100 µM | < 0.01 µM | < 0.0255 µM | 13.1 µM | > 100 µM
CC(=O)OCC1C(=O)OCC1C(=O)N1Cc2cc3ccccc3nc2C1 (configuration not stated) | – | 4.25 µM | – | 6.99 µM | – | 23.1 µM | – | 14.9 µM | – | 19.9 µM | – | 22.9 µM | – | 2.57 µM | – | 3.16 µM | – | 16.4 µM | – | 4.17 µM
CCN(Cc1ccc(OC)cc1)c1ccc(CO)c(Cl)c1 | 21.6 µM | 59.7 µM | 12.2 µM | > 100 µM | 2.66 µM | 18.6 µM | 13.9 µM | 45.6 µM | 18.9 µM | 61.3 µM | 12.9 µM | 40.4 µM | 7.35 µM | 28.3 µM | 1.14 µM | > 36.3 µM | 0.0306 µM | 0.168 µM | – | –
O=C(CCCc1ccc(N(CCCl)CCCl)cc1)NCc1ccccc1 | 2.89 µM | 11.6 µM | 13.3 µM | > 100 µM | 8.14 µM | 22.7 µM | 3.49 µM | 33 µM | 21.3 µM | > 100 µM | 15.4 µM | 36.4 µM | 10.5 µM | 25.2 µM | 2.33 µM | 14.4 µM | 2.59 µM | 20.8 µM | 15.5 µM | 56.8 µM
O=C(NCc1cn(Cc2cccc(Oc3ccccc3)c2)nn1)c1cccnc1Nc1ccc(F)cc1 | > 100 µM | > 100 µM | – | – | 4.48 µM | 38.8 µM | 3.81 µM | 21.3 µM | 14.5 µM | > 100 µM | > 100 µM | > 100 µM | 5.69 µM | 42 µM | 64.2 µM | > 100 µM | 13.7 µM | 95.1 µM | 24.5 µM | > 100 µM
CC(C)(C)CC(C)(C)c1ccc(OCCO)cc1 | 3.41 mg/L | > 75 mg/L | 7.74 mg/L | 19.3 mg/L | 0.89 mg/L | 7.63 mg/L | 3.45 mg/L | 18.1 mg/L | 4.43 mg/L | 15.7 mg/L | 7.57 mg/L | 19.7 mg/L | 8.58 mg/L | 18.1 mg/L | 0.678 mg/L | 8.37 mg/L | 0.0423 mg/L | 14.2 mg/L | 10.6 mg/L | 33 mg/L
Cn1cc(C2=C(c3ccsc3)C(=O)NC2=O)c2ccccc21 | > 25 µM | > 25 µM | > 22.7 µM | > 25 µM | > 25 µM | > 25 µM | 1.07 µM | > 25 µM | > 25 µM | > 25 µM | > 25 µM | > 25 µM | 24.4 µM | > 25 µM | > 25 µM | > 25 µM | 12.1 µM | > 25 µM | > 25 µM | > 25 µM
COc1cc2c(c3oc(-c4ccc(O)cc4)c(O)c(=O)c13)CCC(C)(C)O2 | 0.191 µM | – | 0.169 µM | 0.392 µM | 0.0908 µM | 0.241 µM | 0.103 µM | 0.283 µM | 0.101 µM | 0.312 µM | 0.254 µM | 0.672 µM | 0.0379 µM | 0.176 µM | 0.245 µM | 1.17 µM | 0.148 µM | 0.538 µM | 0.5 µM | > 100 µM
Cn1cc(-c2ccc3nc(-c4ccc(CC(=O)Nc5cc(C(C)(C)C)no5)cc4)cnc3c2)cn1 | 0.102 µM | > 3 µM | 0.0197 µM | > 3 µM | – | > 3 µM | 0.0161 µM | > 0.84 µM | 0.0392 µM | 0.664 µM | > 1.69 µM | > 3 µM | 0.0195 µM | > 3 µM | 0.0102 µM | > 3 µM | 0.0439 µM | 0.185 µM | 0.0139 µM | > 3 µM
O=C(/C=C\c1ccc(O)c(O)c1)c1ccccc1O | 1.89 µM | 97.5 µM | 2.52 µM | 19.1 µM | 11.4 µM | 28.4 µM | 14.7 µM | 94.3 µM | 9.51 µM | 37 µM | 13.9 µM | 27 µM | 4.21 µM | 17.2 µM | 4.45 µM | 40 µM | 16 µM | 32.8 µM | 18.2 µM | > 100 µM
COc1ccc(C2=NN(C(N)=S)C(c3ccc4c(c3)OCO4)C2)cc1 (configuration not stated) | 3.02 µM | 34.5 µM | 2.88 µM | > 100 µM | 2.47 µM | 8.41 µM | 2.75 µM | 8.51 µM | 4.71 µM | 65.7 µM | 2.3 µM | 5.85 µM | 4.28 µM | > 100 µM | 2.6 µM | 8.91 µM | 2.24 µM | 9.07 µM | 2.47 µM | 9.54 µM
